Measured values as given in ChEMBL document CHEMBL2385043, “Recent advances in malaria drug discovery” (Bioorg Med Chem Lett, 2013).
pEC50, pIC50: −log10 of the molar value. Blank lines part the entries; values can stand above or below the compound they belong to.

Legend:
[1] = tested on: Plasmodium falciparum; test: Antiplasmodial activity against drug-sensitive Plasmodium falciparum 3D7; format: functional, organism-based
[2] = tested on: Plasmodium berghei; test: Antimalarial activity against Plasmodium berghei ANKA infected in mouse assessed as reduction in parasitemia at 40 mg/kg, ip relative to control; format: functional; details: route intraperitoneal
[3] = tested on: Plasmodium falciparum; test: Antiplasmodial activity against drug-sensitive Plasmodium falciparum 3D7 after 24 hrs by [3H]-hypoxanthine incorporation assay; format: functional, organism-based
[4] = tested on: Plasmodium berghei; test: Antimalarial activity against Plasmodium berghei infected in Swiss albino mouse assessed as reduction in parasitemia after 4 days by microscopic analysis; format: functional; details: 96 h
[5] = tested on: Plasmodium falciparum; test: Antiplasmodial activity against Plasmodium falciparum relative to artesunate; format: functional
[6] = tested on: Plasmodium berghei; test: Antimalarial activity against Plasmodium berghei infected in Swiss albino mouse assessed as reduction in parasitemia after 4 days by microscopic analysis relative to artesunate; format: functional
[7] = tested on: Plasmodium falciparum; test: Antiplasmodial activity against multidrug-resistant Plasmodium falciparum W2 infected in human erythrocytes; format: functional, organism-based
[8] = Terminal half life in human; format: ADME, organism-based; details: in vivo, read-out: beta t1/2 (converted)
[9] = tested on: Plasmodium yoelii; test: Antiplasmodial activity against liver stage of Plasmodium yoelii; format: functional, organism-based
[10] = tested on: Plasmodium falciparum; test: Antiplasmodial activity against blood stage of Plasmodium falciparum; format: functional, organism-based
[11] = tested on: Plasmodium falciparum; test: Antimalarial activity against Plasmodium falciparum infected in SCID mouse; format: functional
[12] = tested on: Plasmodium falciparum; test: Antiplasmodial activity against drug-sensitive Plasmodium falciparum NF54; format: functional, organism-based
[13] = tested on: Plasmodium berghei; test: Antimalarial activity against erythrocytic stage of Plasmodium berghei infected in po dosed mouse administered for 3 days; format: functional; details: 72 h
[14] = tested on: Plasmodium falciparum; test: Antiplasmodial activity against Plasmodium falciparum; format: functional, organism-based
[15] = Toxicity in po dosed Sprague-Dawley rat; format: organism-based; details: in vivo
[16] = tested on: Plasmodium; test: Antimalarial activity against Plasmodium infected in mouse; format: functional
[17] = tested on: Plasmodium falciparum; test: Antiplasmodial activity against chloroquine-resistant Plasmodium falciparum K1; format: functional, organism-based
[18] = tested on: Plasmodium falciparum; test: Antiplasmodial activity against multidrug-resistant Plasmodium falciparum W2 infected in human erythrocytes after 24 hrs by [3H]-hypoxanthine incorporation assay
[19] = tested on: Plasmodium berghei; test: Antimalarial activity against Plasmodium berghei infected in po dosed mouse; format: functional
[20] = tested on: Plasmodium falciparum; test: Antiplasmodial activity against multidrug-resistant Plasmodium falciparum Dd2 after 72 hrs by SYBR Green staining-based fluorescence assay; format: functional, organism-based; details: Dd2, 72 h
[21] = tested on: Plasmodium falciparum; test: Antiplasmodial activity against drug-sensitive Plasmodium falciparum 3D7 after 72 hrs by SYBR Green staining-based fluorescence assay; format: functional, organism-based; details: 3D7, 72 h
[22] = tested on: Plasmodium falciparum; test: Antimalarial activity against Plasmodium falciparum infected in mouse; format: functional
[23] = Inhibition of Plasmodium falciparum cytochrome b-c1 complex
[24] = tested on: Plasmodium falciparum; test: Antiplasmodial activity against sexual blood stage of Plasmodium falciparum; format: functional, organism-based
[25] = Selectivity ratio of IC50 for human cytochrome b-c1 complex to IC50 for Plasmodium falciparum cytochrome b-c1 complex
[26] = tested on: Plasmodium falciparum; test: Antiplasmodial activity against asexual blood stage of Plasmodium falciparum; format: functional, organism-based
[27] = Oral bioavailability in rat; format: ADME, organism-based; details: in vivo
[28] = tested on: Plasmodium vinckei; test: Antimalarial activity against Plasmodium vinckei infected in po dosed Swiss mouse; format: functional
[29] = tested on: Plasmodium falciparum; test: Antiplasmodial activity against NITD609-resistant Plasmodium falciparum Dd2 infected in human erythrocytes after 48 hrs by [3H]-hypoxanthine incorporation assay; format: functional, organism-based
[30] = Half life in human; format: ADME, organism-based; details: in vivo
[31] = tested on: Plasmodium falciparum; test: Antimalarial activity against multidrug-resistant Plasmodium falciparum W2 infected in ip dosed mouse assessed as reduction in parasitemia administered on day 64 post-infection; format: functional; details: 1536 h
[32] = tested on: Plasmodium falciparum; test: Antiplasmodial activity against multidrug-resistant Plasmodium falciparum W2 infected in human erythrocytes after 72 hrs by ELISA; format: functional, organism-based; details: W2, 72 h
[33] = Oral bioavailability in Sprague-Dawley rat; format: ADME, organism-based; details: in vivo
[34] = tested on: Plasmodium falciparum; test: Antiplasmodial activity against wild type Plasmodium falciparum TM4 by [3H]-hypoxanthine incorporation assay; details: TM4, 3 h
[35] = tested on: Plasmodium falciparum; test: Antiplasmodial activity against Plasmodium falciparum VS/1 expressing DHFR quadruple mutation by [3H]-hypoxanthine incorporation assay; format: functional, organism-based
[36] = tested on: Plasmodium falciparum; test: Antimalarial activity against Plasmodium falciparum VS/1 expressing DHFR quadruple mutation infected in po dosed SCID mouse assessed as reduction in parasitemia administered 3 days post infection measured on day 6; format: functional; details: VS/1, po
[37] = Half life in po dosed Sprague-Dawley rat by LC/MS/MS analysis; format: ADME, organism-based; details: in vivo
[38] = tested on: Plasmodium falciparum; test: Antiplasmodial activity against chloroquine and antifolate-sensitive Plasmodium falciparum TM4 after 24 hrs by [3H]-hypoxanthine incorporation assay; format: functional, organism-based

pEC50 [1]: 7.00
SMILES: COc1cc2c(NC3CCN(C)CC3)nc(N3CCCN(C)CC3)nc2cc1OCc1ccccc1
fold change (FC) [2]: 18

SMILES: C[C@H]1[C@H](N2CCS(=O)(=O)CC2)O[C@@H]2O[C@@]3(C)CC[C@H]4[C@H](C)CC[C@@H]1[C@@]24OO3 [ARTEMIFONE]
pEC50 [3]: 9.06
ED50 [4]: 2 mg/kg/day
fold change (FC) [5]: 10
fold change (FC) [6]: 4

SMILES: CCCCN(CCCC)CC(O)c1cc(Cl)cc2c1-c1ccc(Cl)cc1/C2=C/c1ccc(Cl)cc1 (configuration not stated) [LUMEFANTRINE]
pEC50 [7]: 9.35
half-life [8]: 72 h

pEC50 [9]: 8.11
pEC50 [10]: 7.77
SMILES: C[C@H](NC(=O)[C@H](Cc1ccccc1)C[C@@H](O)[C@H](Cc1ccccc1)NC(=O)OC(C)(C)C)C(=O)N[C@@H]1C(=O)N(C)c2ccccc2-c2ccccc21

pEC50 [12]: 9.00
SMILES: CC(=O)N1CCN(c2ccc(CN(C(=O)/C=C/c3ccc(C(F)(F)F)cc3)[C@@H](Cc3ccccc3)C(=O)N3CCN(Cc4ccc(N(C)CCO)cc4)CC3)cc2)CC1
ED90 [11]: 8.4 mg/kg/day
ED90 [13]: 54 mg/kg/day

SMILES: c1cc([C@H]2CC[C@]3(CC2)OO[C@]2(O3)C3CC4CC(C3)CC2C4)ccc1OCCN1CCOCC1 [ARTEFENOMEL]
pEC50 [14]: 8.47
MTD [15]: 300 mg/kg
ED50 [16]: 20 mg/kg

SMILES: CN1CCN(C2CCN(C(=O)CC3CCC4(CC3)OOC3(OO4)C4CC5CC(C4)CC3C5)CC2)CC1 (configuration not stated)
pIC50 [1]: 8.31
ED50 [16]: 1.8 mg/kg/day
pIC50 [17]: 8.72

SMILES: CCN(CC)CCCC(C)Nc1ccnc2cc(Cl)ccc12 (configuration not stated) [CHLOROQUINE]
pEC50 [18]: 7.31
ED90 [11]: 6.4 mg/kg/day
ED50 [19]: 1.9 mg/kg

SMILES: CCOc1ccc(F)cc1C1(O)C(N)=Nc2ccc(Cl)cc21 (configuration not stated)
pEC50 [20]: 7.19
pEC50 [21]: 7.55
ED99 [22]: 100 mg/kg/day

pIC50 [23]: 8.70
pEC50 [9]: 8.59
pEC50 [24]: 7.44
Ratio IC50 [25]: > 5000
pEC50 [26]: 8.00
SMILES: CCCCCCCCCCOc1cc2c(O)c(C(=O)OCC)cnc2cc1OCC [DECOQUINATE]

bioavailability [27]: 15%
SMILES: C/C(=C1\CCOC(=O)S1)N(C=O)CCCCCCCCCCCCN(C=O)/C(C)=C1/CCOC(=O)S1
ED50 [28]: 5 mg/kg/day

SMILES: C[C@@H]1CC[C@H]2[C@@H](C)C(=O)O[C@@H]3O[C@@]4(C)CC[C@@H]1[C@]32OO4 [ARTEMISININ]
pEC50 [29]: 7.82

SMILES: Clc1ccc2c(N3CCN(CCCN4CCN(c5ccnc6cc(Cl)ccc56)CC4)CC3)ccnc2c1 [PIPERAQUINE]
half-life [30]: 192 h
ED50 [31]: 4.5 mg/kg
pEC50 [32]: 7.90

SMILES: CCc1nc(N)nc(N)c1OCCCOc1ccccc1CCC(=O)O.Cl
bioavailability [33]: 46%
pIC50 [34]: 8.34
pIC50 [35]: 7.25
ED50 [36]: 0.3 mg/kg/day
half-life [37]: 7.3 h

pEC50 [38]: 7.42
SMILES: CC1(C)N=C(N)N=C(N)N1c1ccc(Cl)cc1 [CYCLOGUANIL]
